# Assays:
# Experiment in all cases: relative viability (nuclei count vs DMSO), 5 days (fraction); higher = more cells survive
# QS11 + Alpelisib = compound: C1CC2=C(C1)C=C(C=C2)OC3=NC(=C4C(=N3)N(C=N4)CC5=CC=C(C=C5)C6=CC=CC=C6)N[C@@H](CC7=CC=CC=C7)CO [QS11] + Cc1nc(NC(=O)N2CCC[C@H]2C(N)=O)sc1-c1ccnc(C(C)(C)C(F)(F)F)c1 [Alpelisib] (partner 2 µM)
# Summary of the method: (§1)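 Nuclei were stained with Hoechst during a one-step fixation (final 0.05% Triton X-100, 1% formaldehyde, 1 ug/ml Hoechst) carried out 5 days after dosing, then counted on 4× images. The cells, lung cancer lines in 1536-well plates, had been dosed by pin tool the day after seeding with one drug alone or a fixed anchor-drug dose plus five library-drug doses (not always all listed) in √10 steps. Relative viability is the nuclei count in treated wells divided by that in vehicle wells, and each value is the median of duplicate plates.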
# AZ628 + Crizotinib = compound: CC1=C(C=C(C=C1)NC(=O)C2=CC(=CC=C2)C(C)(C)C#N)NC3=CC4=C(C=C3)N=CN(C4=O)C [AZ628] + C[C@@H](Oc1cc(-c2cnn(C3CCNCC3)c2)cnc1N)c1c(Cl)ccc(F)c1Cl [Crizotinib] (partner 1 µM)
# Summary of the method: as §1
# AZ628 + Alpelisib = compound: CC1=C(C=C(C=C1)NC(=O)C2=CC(=CC=C2)C(C)(C)C#N)NC3=CC4=C(C=C3)N=CN(C4=O)C [AZ628] + Cc1nc(NC(=O)N2CCC[C@H]2C(N)=O)sc1-c1ccnc(C(C)(C)C(F)(F)F)c1 [Alpelisib] (partner 2 µM)
# Summary of the method: as §1
# Darinaparsin + Alpelisib = compound: C[As](C)SC[C@H](NC(=O)CC[C@H](N)C(=O)O)C(=O)NCC(=O)O [Darinaparsin] + Cc1nc(NC(=O)N2CCC[C@H]2C(N)=O)sc1-c1ccnc(C(C)(C)C(F)(F)F)c1 [Alpelisib] (partner 2 µM)
# Summary of the method: as §1
Cell Line,relative viability (QS11 + Alpelisib; first compound 0.08 µM),relative viability (QS11 + Alpelisib; first compound 0.253 µM),relative viability (QS11 + Alpelisib; first compound 0.8 µM),relative viability (QS11 + Alpelisib; first compound 2.53 µM),relative viability (QS11 + Alpelisib; first compound 8 µM),relative viability (AZ628 + Crizotinib; first compound 0.08 µM),relative viability (AZ628 + Crizotinib; first compound 0.253 µM),relative viability (AZ628 + Crizotinib; first compound 0.8 µM),relative viability (AZ628 + Crizotinib; first compound 2.53 µM),relative viability (AZ628 + Crizotinib; first compound 8 µM),relative viability (AZ628 + Alpelisib; first compound 0.08 µM),relative viability (AZ628 + Alpelisib; first compound 0.253 µM),relative viability (AZ628 + Alpelisib; first compound 0.8 µM),relative viability (AZ628 + Alpelisib; first compound 2.53 µM),relative viability (AZ628 + Alpelisib; first compound 8 µM),relative viability (Darinaparsin + Alpelisib; first compound 0.08 µM),relative viability (Darinaparsin + Alpelisib; first compound 0.8 µM),relative viability (Darinaparsin + Alpelisib; first compound 2.53 µM),relative viability (Darinaparsin + Alpelisib; first compound 8 µM)
BEN,0.772,1.22,1.12,1.01,1.29,0.98,0.881,0.698,0.966,0.825,1.22,0.87,0.791,0.963,0.835,0.963,1.09,0.956,1.33
HARA,0.691,0.944,,0.872,0.917,0.904,1.05,0.951,0.82,0.476,0.68,0.763,0.907,0.726,0.391,0.868,0.682,0.756,1.19
RERF-LC-KJ,0.851,0.779,0.928,0.675,0.852,0.779,0.817,0.868,0.85,0.726,0.721,0.912,0.749,0.719,0.597,0.865,0.917,0.73,0.873
NCI-H1975,0.654,0.727,0.747,0.887,0.9,0.957,1.02,0.896,0.927,0.627,0.603,0.701,0.594,0.66,0.328,0.758,0.777,0.483,0.704
EBC-1,0.932,0.77,0.76,0.816,0.667,0.201,0.212,0.169,0.197,0.168,0.865,0.859,0.949,0.811,0.298,0.802,0.773,0.728,0.958
EPLC-272H,0.931,0.934,1.04,1.04,1.1,0.904,0.957,0.848,0.851,0.813,0.951,0.85,0.892,0.908,0.641,1.03,0.931,0.851,1.15
HCC-15,0.749,1.01,,0.936,0.731,0.81,0.793,0.767,0.77,0.446,0.967,0.742,0.707,0.699,0.392,0.914,0.95,0.867,1.08
COR-L 105,0.931,0.946,1.13,0.745,0.771,1.07,0.728,0.744,0.757,0.438,0.998,1.27,0.921,1.03,0.632,1.34,1.21,,1.08
NCI-H1915,1.06,1.16,,1.06,0.999,0.976,0.919,0.869,0.727,0.495,1.09,1.04,0.911,0.708,0.564,1.12,1.06,1.03,1.11
NCI-H2347,1.11,1.06,0.929,0.918,1.21,0.689,0.832,0.709,0.589,0.443,0.679,0.934,0.779,0.822,0.471,1.21,1.09,1.04,1.09
EKVX,0.895,0.821,,0.86,0.906,1.16,0.913,1,0.975,0.751,0.909,0.903,0.949,0.983,0.866,0.943,0.844,0.857,1.1
LC-2-ad,0.93,0.853,0.698,1.08,0.779,0.503,0.457,0.448,0.44,0.505,0.968,0.865,0.982,0.851,0.466,0.954,0.832,0.856,1.01

# From the supplement of paper PMC10307832
